Assay results taken from US20250320190A1, “Novel Inhibitors of Leucine Carboxyl Methyltransferase-1 (LCMT-1) and Methods of Use Thereof” (Temple University-Of The Commonwealth System of Higher …, priority 2024, published 2025).
Values after ≈ are worked out from the molar mass of the structure shown.

Experiments:
[1] = tested on: HEK-293 cells transfected with pCMV6-LCMT1; experiment: Cytotoxicity assay in LCMT-1-transfected cells; type: cell-based; settings: HEK-293 pCMV6-LCMT1 vs HEK-293; 0.78-50 μM; 48 hours
Protocol: A mammalian LCMT-1 plasmid expression vector was obtained from Origene (pCMV6-LCMT1, catalog #RC200018). HEK-293 cells were transfected with the plasmid using PolyJet™ transfection reagent (SignaGen Laboratories, Frederick, Maryland) according to manufacturer's directions. After 5 hours, the medium was changed. The next day, the transfected cells were seeded in 96-well optical bottom tissue culture plates for cytotoxicity assays as previously described. After 24 hours, the medium was changed to medium containing Compound 2 at various concentrations (0.78-50 μM), or fresh medium with the carrier (dimethyl sulfoxide) in the case of the control. After 48 hours, cells were stained with calcein-AM and fluorescence was measured.

Kinetic solubility = type: physicochemical; settings: 2% dimethylsulfoxide/PBS, aqueous buffer, kinetic from dmso stock; read-out: Max. Kinetic Solubility
Source text: There is no cause for concern at this stage since there are multiple strategies and reagents for enhancing aqueous solubility for animal in vivo studies (Savjani, K. T., A. K. Gajjar and J. K. Savjani, 2012, ISRN Pharm 2012: 195727.). […] While target tissue exposure is dependent on free, unbound fractions in the plasma, plasma protein binding can protect compounds from hepatic metabolism. Thus, in vivo metabolism and excretion are often determined by a balance between these two properties. In vivo half-life is a complicated property impacted upon by multiple factors and is difficult to predict. […] While these numbers are somewhat low for a drug candidate, they are acceptable for proof of concept tool molecules which can be given multiple times per day and at higher doses to saturate metabolism.

501-MEL cells = experiment: Cytotoxicity assay (CellTiter 96 AQeous); type: cell-based; settings: Homo sapiens, 48 hours
Protocol: (§1) MCF7, MDA-MB-231, 501-MEL, Rosi, A549, SCC-15, SCC-25, UM-SCC-12, UM-SCC-14a, UM-SCC-49 and UM-SCC69 cells were seeded in 96-well tissue culture plates (Corning, New York) at a density of 2.5×10^3 cells/well. After 24 hours, the media were changed to media with LCMT-li (ChemSpace, Monmouth Junction, New Jersey) at various concentrations (0.78-200 μM). Control cells were given fresh media. After 48 hours cell viability was assessed using CellTiter 96® AQeous Non-Radioactive Cell Proliferation Assays (Promega Corporation, Madison Wisconsin). Plates were read after 4 hours with a GloMax® Discover plate reader (Promega Corporation, Madison Wisconsin). The cytotoxicity assays were performed at least twice, each time with eight replicates per condition.
(§2) Statistical analyses were performed with GraphPad Prism software (version 10.4.1). Effective concentrations that inhibited 50% of cells (EC50, log agonist versus response) were estimated with nonlinear fit curves. Absorbance values for cytotoxity assays and relative densities for Western blot assays were compared using Kruskal-Wallis analyses of variance with Dunn's correction for multiple comparisons. For flow cytometric analyses, two-way analyses of variance with Tukey's correction for multiple comparisons were used.

A549 cells = experiment: Cytotoxicity assay (CellTiter 96 AQeous); type: cell-based; settings: Homo sapiens, 48 hours
Protocol: as §1, §2

MCF7 cells = experiment: Cytotoxicity assay (CellTiter 96 AQeous); type: cell-based; settings: Homo sapiens, 48 hours
Protocol: as §1, §2

MDA-MB-231 cells = experiment: Cytotoxicity assay (CellTiter 96 AQeous); type: cell-based; settings: Homo sapiens, 48 hours
Protocol: as §1, §2

Rosi cells = experiment: Cytotoxicity assay (CellTiter 96 AQeous); type: cell-based; settings: Homo sapiens, 48 hours
Protocol: as §1, §2

SCC-15 cells [2] = experiment: Cytotoxicity assay (CellTiter 96 AQeous); type: cell-based; settings: Homo sapiens, 48 hours
Protocol: as §1, §2

UM-SCC-12 cells [3] = experiment: Cytotoxicity assay (CellTiter 96 AQeous); type: cell-based; settings: Homo sapiens, 48 hours
Protocol: as §1, §2

UM-SCC-14a cells = experiment: Cytotoxicity assay (CellTiter 96 AQeous); type: cell-based; settings: Homo sapiens, UMSCC14A, 48 hours
Protocol: as §1, §2

UM-SCC-49 cells = experiment: Cytotoxicity assay (CellTiter 96 AQeous); type: cell-based; settings: Homo sapiens, 48 hours
Protocol: as §1, §2

UM-SCC-69 cells = experiment: Cytotoxicity assay (CellTiter 96 AQeous); type: cell-based; settings: Homo sapiens, 48 hours
Protocol: as §1, §2

SCC-15 cells [4] = experiment: Western blots (pMLKL, ACSL4) with and without irradiation; type: cell-based, human; settings: alone or with irradiation
Protocol: (§3) To better understand cellular outcomes associated with combining LCMT-li with radiotherapy (Adjemian, S. et al., 2020, Cell Death Dis 11(11): 1003), SCC-15, SCC-25, UM-SCC-12, UM-SCC-14a and UM-SCC-49 cells were treated with LCMT-li, radiotherapy or both as described for Annexin V assays. UM-SCC-69 cells were not used for immunoblots because insufficient numbers of cells survived irradiation to obtain sufficient lysates. After 24 hours, cells were lysed in radioimmunoprecipitation assay buffer containing protease inhibitors (Boster Bio, Pleasanton, California, catalog #AR1182-1) and phosphatase inhibitors (Santa Cruz Biotechnology catalog #sc-45044 and #sc-45045). Protein concentrations were measured with a bicinchoninic acid assay (G-Biosciences, Saint Louis, Missouri). Fifty micrograms of each lysate were used for bis-tris polyacrylamide gel electrophoresis. Resolved lysates were transferred to nitrocellulose membranes. Membranes were blocked with TBS with 5% bovine serum albumin before incubation with primary antibodies.
(§4) The anti-phospho-mixed lineage kinase domain like pseudokinase (pMLKL) antibody was obtained from R&D Systems (Minneapolis, Minnesota, catalog #MAB9187-100, 1:1,000 dilution). Antibodies obtained from Proteintech (Rosemont, Illinois) included anti-MLKL (catalog #66675-1-Ig, 1:5,000 dilution) and anti-β-actin (catalog #66009-1-Ig, 1:50,000 dilution). The anti-long-chain-fatty-acid-Coenzyme A ligase 4 (ACSL4) antibody was obtained from Santa Cruz Biotechnology (Dallas, Texas, catalog #sc-365230, 1:1,000 dilution). Appropriate IR-dye secondary antibodies obtained from Jackson ImmunoResearch Laboratories (West Grove, Pennsylvania) were used (Alexa Fluor® 790-conjugated anti-mouse (catalog #115-655-146, 1:50,000 dilution), Alexa Fluor® 680-conjugated anti-mouse (catalog #115-625-146, 1:50,000 dilution), and Alexa Fluor® 680-conjugated anti-rabbit (catalog #115-625-144, 1:50,000 dilution). Band densities were normalized to β-actin, the endogenous control. Twelve replicates were used for statistical analyses.

SCC-25 cells = experiment: as above; type: cell-based, human; settings: alone and in combination with irradiation
Protocol: as §3, §4

UM-SCC-12 cells [5] = experiment: as above; type: cell-based, human; settings: LCMT-li alone
Protocol: as §3, §4

solubility kinetic (Kinetic solubility): 18.5 µM (≈ 7.82 µg/mL)
Compound: COC(=O)c1c(NC(=O)c2ccccc2C)sc(C(=O)Nc2cccc(C)c2)c1C [Compound 2, methyl 4-methyl-2-[(2-methylbenzoyl)amino]-5-[[(3-methylphenyl)amino]carbonyl]-3-thiophenecarboxylate]
effect of LCMT-1 overexpression on survival in the presence of Compound 2 [1]: significantly increased survival
EC50 (501-MEL cells): 60.6 µM
EC50 (A549 cells): 41.4 µM
EC50 (MCF7 cells): 2.24 µM
EC50 (MDA-MB-231 cells): 3.89 µM
EC50 (Rosi cells): 3.16 µM
EC50 (SCC-15 cells [2]): 4.26 µM
EC50 (UM-SCC-12 cells [3]): 209 µM
EC50 (UM-SCC-14a cells): 26.4 µM
EC50 (UM-SCC-49 cells): 4.95 µM
EC50 (UM-SCC-69 cells): 2.49 µM
necroptosis (pMLKL) and ferroptosis (ACSL4) (SCC-15 cells [4]): did not induce necroptosis or ferroptosis
necroptosis (pMLKL expression) (SCC-25 cells): increased necroptosis
necroptosis (pMLKL) and ferroptosis (ACSL4) (UM-SCC-12 cells [5]): increased necroptosis and ferroptosis
